Measurements published in paper PMC4028696, “Development of a screen to identify selective small molecules active against patient-derived metastatic and chemoresistant breast cancer cells” (Breast Cancer Research : BCR, 2013).

Experiments:
Format in all cases: cell-based, human
[1] = system: PE1007070 cells; assay: Live/dead assay, monolayer; details: 20 μM, five days, vs DMSO
Experimental: (§1) The hTERT-HMEC and PE1007070 cells were seeded in black wall clear bottom 96-well plates (Greiner Bio-one, Monroe, NC, USA) in 100 μL of modified M87 media at varying densities to achieve 80% to 90% confluency at the end of the assay. After 24 hours, the media were aspirated and the cells were treated with 20 μM C-6 or the corresponding 0.02% (v/v) DMSO vehicle control. After culturing for five days, the viability and cytotoxicity was determined with the Live/dead assay (Life Technologies) according to the manufacturer's instructions. Briefly, the media were aspirated and the cells were treated with 4 μM Calcein-AM and 8 μM Ethidium homodimer-1 diluted in (D)MEM/F12 for 30 minutes at 37°C. Subsequent imaging was performed with an IX81 microscope (Olympus, Center Valley, PA, USA) running Slide Book 5.0 software (Intelligent Imaging Innovations, Denver, CO, USA).

[2] = system: hTERT-HMEC cells; assay: Live/dead assay, monolayer; details: 20 μM, five days
Experimental: as §1

[3] = system: cleaved caspase-3, caspase-8, cleaved caspase-9, and PARP; assay: Western blot for caspase and PARP cleavage; details: 30 μM, 48 hours, cell lines, hTERT-HMEC and PE cells
Experimental: Cells were lysed in cold radioimmunoprecipitation assay buffer (50 mM Tris HCl, 150 mM NaCl, 0.1% sodium dodecyl sulfate (SDS), 0.5% sodium deoxycholate, 1% Triton X-100, pH = 8.0) supplemented with protease inhibitor cocktail (Sigma), phosphatase inhibitor cocktail 2 (Sigma) and 1 mM dithiothreitol (DTT) (Sigma). The lysate was sonicated for 30 seconds using a 450 Sonifier (Branson Ultrasonics, Danbury, CT, USA) and was centrifuged at 14,000 RPM for five minutes at 4°C. The protein concentration was determined using the BCA protein assay kit (Peirce, Rockford, IL, USA) and the samples were boiled for five minutes with 4× SDS Laemmli buffer. Equal amounts of protein were resolved on SDS polyacrylamide gels and transferred to an Immobilon-FL PVDF membrane (EMD Millipore). Blots were blocked in Odyssey Blocking Buffer (LI-COR, Lincoln, NE, USA) for one hour at room temperature, stained with primary antibodies overnight at 4°C, washed, and stained with IR800CW or IR680 anti-mouse or rabbit secondary antibodies (LI-COR) for one hour at room temperature. Blots were imaged with the Odyssey Infrared Imaging System (LI-COR). […]

[4] = system: caspase-3/7, -8 or -9; assay: Caspase-Glo caspase activity assay; details: 30 μM, 24 or 48 hours, normalized to ATP viability
Experimental: Adherent cells were seeded in two identical white 96-well plates (Costar) in 100 μL of their respective media at varying densities to achieve 80% to 90% confluency at the end of the assay. After 24 hours, the media were aspirated and the cells were treated with 30 μM C-6 or a matched 0.03% (v/v) DMSO vehicle control in the corresponding media containing 2% FBS. For suspension cultures, cells were first seeded in 75 μL of media. At the start of treatment, 25 μL of a 4× concentration of C-6 or a matched (v/v) DMSO vehicle control was added to each well such that the final volume in each well was 100 μL and the final concentration of C-6 was 30 μM. For the caspase activity assays, additional wells were treated with 1 μM staurosporine. […] For the Caspase-Glo assay, cell viability was determined for the additional 96-well plate utilizing the ATPlite 1step assay system (Perkin Elmer) according to the manufacturer's instructions. For the AAF-Glo assay, the total protein in each well of the additional plate was measured using the BCA protein assay kit (Peirce, Rockford, IL, USA). Luminescence measurements were acquired utilizing a Perkin Elmer 2104 EnVision plate reader. Raw luminescence values for each assay were normalized to the DMSO vehicle control wells. […]

COc1cc(OC)cc(C(C)c2ccc(NC(=O)OC(C)(C)C)cc2)c1 (stereo not shown) [C-6]
number of dead cells [1]: led to an increase in the number of dead cells | morphology and dead (ethidium positive) cells [2]: did not induce a gross morphological phenotype in the hTERT-HMECs or a significant increase in dead (ethidium bromide positive) cells | cleavage of caspase-3, -8, -9, or PARP [3]: did not induce cleavage | caspase activity [4]: did not induce significant caspase activity
